{
  "source": "PubChem BioAssay (NCI)",
  "test_in_all_cases": "inhibition of tumour cell growth, NCI panel, 48 h",
  "key": {"[1]": {"test_system": "NCI-H226 lung"}, "[2]": {"test_system": "NCI-H23 lung"}, "[3]": {"test_system": "NCI-H460 lung"}, "[4]": {"test_system": "NCI-H522 lung"}, "[5]": {"test_system": "NCI/ADR-RES ovarian"}, "[6]": {"test_system": "OVCAR-3 ovarian"}, "[7]": {"test_system": "OVCAR-4 ovarian"}, "[8]": {"test_system": "OVCAR-5 ovarian"}, "[9]": {"test_system": "OVCAR-8 ovarian"}, "[10]": {"test_system": "PC-3 prostate"}, "[11]": {"test_system": "RPMI-8226 leukemia"}, "[12]": {"test_system": "RXF 393 renal"}, "[13]": {"test_system": "SF-268 CNS"}, "[14]": {"test_system": "SF-295 CNS"}, "[15]": {"test_system": "SF-539 CNS"}, "[16]": {"test_system": "SK-MEL-2 melanoma"}, "[17]": {"test_system": "SK-MEL-28 melanoma"}, "[18]": {"test_system": "SK-MEL-5 melanoma"}, "[19]": {"test_system": "SK-OV-3 ovarian"}, "[20]": {"test_system": "SN12C renal"}, "[21]": {"test_system": "SNB-19 CNS"}, "[22]": {"test_system": "SR leukemia"}, "[23]": {"test_system": "SW-620 colon"}, "[24]": {"test_system": "T-47D breast"}, "[25]": {"test_system": "TK-10 renal"}, "[26]": {"test_system": "U251 CNS"}, "[27]": {"test_system": "UACC-257 melanoma"}, "[28]": {"test_system": "UACC-62 melanoma"}, "[29]": {"test_system": "UO-31 renal"}},
  "note": "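Five concentrations, 48 hours, 96-well plates. GI50 marks 50% less growth. The concentration for full growth arrest is given as TGI.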",
  "data": [
    {"smiles": "O=C1c2cccc3cccc(c23)C(=O)N1CCCCOc1ccc(-c2nc3ccc(N4CCOCC4)cc3[nH]2)cc1", "values": [
      {"measurement": "TGI", "setting": "[1]", "value": 47.6, "unit": "µM"},
      {"measurement": "GI50", "setting": "[2]", "value": 6.7, "unit": "µM"},
      {"measurement": "TGI", "setting": "[2]", "value": 23.5, "unit": "µM"},
      {"measurement": "GI50", "setting": "[3]", "value": 3.42, "unit": "µM"},
      {"measurement": "TGI", "setting": "[3]", "value": 16.1, "unit": "µM"},
      {"measurement": "GI50", "setting": "[4]", "value": 15.1, "unit": "µM"},
      {"measurement": "TGI", "setting": "[4]", "value": 41.2, "unit": "µM"},
      {"measurement": "GI50", "setting": "[5]", "value": 10.3, "unit": "µM"},
      {"measurement": "TGI", "setting": "[5]", "value": "> 83.9", "unit": "µM"},
      {"measurement": "GI50", "setting": "[6]", "value": 5.05, "unit": "µM"},
      {"measurement": "TGI", "setting": "[6]", "value": 11.2, "unit": "µM"},
      {"measurement": "GI50", "setting": "[7]", "value": 1.8, "unit": "µM"},
      {"measurement": "TGI", "setting": "[7]", "value": 4.08, "unit": "µM"},
      {"measurement": "GI50", "setting": "[8]", "value": 18.9, "unit": "µM"},
      {"measurement": "TGI", "setting": "[8]", "value": 34.9, "unit": "µM"},
      {"measurement": "GI50", "setting": "[9]", "value": 6.21, "unit": "µM"},
      {"measurement": "TGI", "setting": "[9]", "value": "> 75.1", "unit": "µM"},
      {"measurement": "GI50", "setting": "[10]", "value": 3.16, "unit": "µM"},
      {"measurement": "TGI", "setting": "[10]", "value": 23.6, "unit": "µM"},
      {"measurement": "GI50", "setting": "[11]", "value": 1.27, "unit": "µM"},
      {"measurement": "TGI", "setting": "[11]", "value": 4.39, "unit": "µM"},
      {"measurement": "GI50", "setting": "[12]", "value": 0.547, "unit": "µM"},
      {"measurement": "TGI", "setting": "[12]", "value": 3, "unit": "µM"},
      {"measurement": "GI50", "setting": "[13]", "value": 7.35, "unit": "µM"},
      {"measurement": "TGI", "setting": "[13]", "value": "> 69.6", "unit": "µM"},
      {"measurement": "GI50", "setting": "[14]", "value": 1.63, "unit": "µM"},
      {"measurement": "GI50", "setting": "[15]", "value": 1.65, "unit": "µM"},
      {"measurement": "TGI", "setting": "[15]", "value": 3.47, "unit": "µM"},
      {"measurement": "GI50", "setting": "[16]", "value": 15.7, "unit": "µM"},
      {"measurement": "TGI", "setting": "[16]", "value": 53.6, "unit": "µM"},
      {"measurement": "GI50", "setting": "[17]", "value": 1.42, "unit": "µM"},
      {"measurement": "TGI", "setting": "[17]", "value": 2.86, "unit": "µM"},
      {"measurement": "GI50", "setting": "[18]", "value": 1.6, "unit": "µM"},
      {"measurement": "TGI", "setting": "[18]", "value": 3.06, "unit": "µM"},
      {"measurement": "GI50", "setting": "[19]", "value": 31.2, "unit": "µM"},
      {"measurement": "TGI", "setting": "[19]", "value": "> 54", "unit": "µM"},
      {"measurement": "GI50", "setting": "[20]", "value": 5.56, "unit": "µM"},
      {"measurement": "TGI", "setting": "[20]", "value": 12.1, "unit": "µM"},
      {"measurement": "GI50", "setting": "[21]", "value": 7.91, "unit": "µM"},
      {"measurement": "TGI", "setting": "[21]", "value": "> 48.5", "unit": "µM"},
      {"measurement": "GI50", "setting": "[22]", "value": 2.35, "unit": "µM"},
      {"measurement": "TGI", "setting": "[22]", "value": "> 100", "unit": "µM"},
      {"measurement": "GI50", "setting": "[23]", "value": 3.78, "unit": "µM"},
      {"measurement": "TGI", "setting": "[23]", "value": 12.3, "unit": "µM"},
      {"measurement": "GI50", "setting": "[24]", "value": 3.08, "unit": "µM"},
      {"measurement": "TGI", "setting": "[24]", "value": 15.9, "unit": "µM"},
      {"measurement": "GI50", "setting": "[25]", "value": 3.57, "unit": "µM"},
      {"measurement": "TGI", "setting": "[25]", "value": 13.4, "unit": "µM"},
      {"measurement": "GI50", "setting": "[26]", "value": 1.53, "unit": "µM"},
      {"measurement": "TGI", "setting": "[26]", "value": 4.56, "unit": "µM"},
      {"measurement": "GI50", "setting": "[27]", "value": 5.06, "unit": "µM"},
      {"measurement": "TGI", "setting": "[27]", "value": 27.9, "unit": "µM"},
      {"measurement": "GI50", "setting": "[28]", "value": 1.72, "unit": "µM"},
      {"measurement": "TGI", "setting": "[28]", "value": 3.2, "unit": "µM"},
      {"measurement": "GI50", "setting": "[29]", "value": 10.8, "unit": "µM"},
      {"measurement": "TGI", "setting": "[29]", "value": "> 35.2", "unit": "µM"}
    ]}
  ]
}
